This is an account of results in ChEMBL document CHEMBL1146640, “A new 2-carbamoyl pteridine that inhibits mycobacterial FtsZ” (2004).

For orientation: MIC means the lowest concentration found to suppress growth. A higher MIC goes with a need for much substance. What is called inhibition is the change of the read-out against control, counted positive when it falls.

Assay [1] deals with Mycobacterium tuberculosis. The assay can be described thus: In vitro minimum inhibitory concentration (MIC) towardsMtb H37Ra was determined using a colorimetric (Alamar blue) microdilution broth assay. In kind it is functional. A general note: Resazurin is reduced to fluorescent resorufin, in cell work by metabolically active cells.
Assay [2] concerns Mycobacterium tuberculosis. The assay can be described thus: Inhibitory dose required against Mycobacterium tuberculosis FtsZ polymerization. The conditions noted are these: read-out: ID50 (the source's name). It is filed as functional.
For assay [3], the system named is Mycobacterium tuberculosis. The assay can be described thus: Compound was tested for inhibition of GTP hydrolysis at a concentration of 100 uM in Mycobacterium tuberculosis (Mtb). In kind it is functional.
Assay [4] deals with Tubulin alpha chain (Homo sapiens). The assay can be described thus: Percentage inhibition against human tubulin polymerization.
The target in assay [5] is Tubulin alpha chain (Sus scrofa) (UniProt P02550). The assay can be described thus: Percentage inhibition against human tubulin polymerization. It is filed as functional. The conditions noted are these: concentration not given here.
Sequence of Tubulin alpha chain (Sus scrofa) (P02550 whole entry, looked up): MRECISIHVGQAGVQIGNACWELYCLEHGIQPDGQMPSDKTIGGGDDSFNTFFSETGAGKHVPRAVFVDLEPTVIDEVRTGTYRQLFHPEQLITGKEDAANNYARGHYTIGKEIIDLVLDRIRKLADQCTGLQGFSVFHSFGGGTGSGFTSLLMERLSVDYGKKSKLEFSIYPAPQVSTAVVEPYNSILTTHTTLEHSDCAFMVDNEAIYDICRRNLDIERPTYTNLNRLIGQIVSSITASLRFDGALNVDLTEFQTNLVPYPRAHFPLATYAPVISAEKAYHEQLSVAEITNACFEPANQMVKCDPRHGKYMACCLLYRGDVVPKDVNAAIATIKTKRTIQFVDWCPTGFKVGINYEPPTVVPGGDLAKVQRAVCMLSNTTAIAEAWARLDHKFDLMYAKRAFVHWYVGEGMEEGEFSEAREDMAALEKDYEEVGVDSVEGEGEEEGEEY

≈ marks a conversion by molar mass, not a printed value.

`CCOC(=O)Nc1cc(NC(C)CCCN(CC)CC)c2nc(-c3ccccc3)c(-c3ccccc3)nc2n1` (stereo not drawn): in assay [1], the minimum inhibitory concentration (MIC) is > 0.25 µg/mL. The IC50 in assay [2] was 34.2 µM. This molecule yielded a Hydrolysis in assay [3] of 35%. The inhibition result in assay [4] is “No inhibition”.
In turn, `CCOC(=O)Nc1nc(NC(C)CCCN(CC)CC)c2nc(-c3ccccc3)c(-c3ccccc3)nc2n1` (stereo not drawn) registered an inhibition in assay [5] of 24%. Moreover, the minimal inhibitory concentration (MIC) in assay [1] came out at 2 µg/mL (≈ 3.79 µM). Also, in assay [2], the IC50 amounted to 38.1 µM. This molecule came in with a Hydrolysis in assay [3] of 23%.
